The values that follow come from patent US12648946B2, “Combination of antibody-pyrrolobenzodiazepine derivative conjugate and PARP inhibitor” (DAIICHI SANKYO COMPANY, LIMITED, priority 2019, dated 2026).

The test system of experiment [1] is human pharyngeal cancer cell line FaDu. Description: Antitumor test (3), subcutaneous xenograft. In kind it is in vivo, mouse. To be noted: single administration. As for the experimental part:
Mouse: Five- to six-week-old female BALB/c nude mice (Charles River Laboratories Japan, Inc.) were subjected to experiment. Assay and calculation formula: In all of the studies, the major axis and minor axis of a tumor were measured twice a week by using an electronic digital caliper ([…] Corp.), and the tumor volume (mm^3) was calculated. The calculation formula is as shown below. [formula] Each of the anti-CLDN6 antibody-drug conjugate ADC1, the anti-HER2 antibody-drug conjugate ADC2, and the anti-TROP2 antibody-drug conjugate ADC3 was diluted with ABS buffer (10 mM acetate buffer (pH 5.5), 5% sorbitol), and a liquid volume of 10 mL/kg was intravenously administered into the tail vein. […] LLC)/Dulbecco's Phosphate-Buffered Saline, and then a liquid volume of 10 mL/kg was intraperitoneally administered. […] LLC)/Dulbecco's Phosphate-Buffered Saline, and then a liquid volume of 10 mL/kg was orally administered. Niraparib was dissolved in DMSO, diluted with 0.5% methylcellulose, and then a liquid volume of 10 mL/kg was orally administered. The described method is common to Examples 34 to 37. […]

The test system is the same in experiment [2]. As to the kind of experiment: Cell growth inhibition test (2). In kind it is cell-based. Conditions: 144 h. As to the method: The human pharyngeal cancer cell line FaDu obtained from ATCC (American Type Culture Collection) was used for evaluation. Cells were prepared with MEM containing 10% fetal bovine serum (GE Healthcare), MEM Non-Essential Amino Acids Solution (Thermo Fisher Scientific), and Sodium Pyruvate (Thermo Fisher Scientific) (Thermo Fisher Scientific; hereinafter, referred to as EMEM medium) to reach 6.25×10^3 cells/mL, and 80 μL portions of them were added into a 96-well cell culture microplate. After addition of the cells, the cells were cultured at 37° C. and 5% CO2 overnight.
On the next day, 10 μL portions of pyrrolobenzodiazepine derivative A, B, or C diluted with EMEM medium to 100 pM, 50 pM, 25 pM, 12.5 pM, 6.25 pM, 3.13 pM, 1.56 pM, or 0.78 pM were added to the microplate. To each well without any pyrrolobenzodiazepine derivative, 10 μL of EMEM medium was added. Further, 10 μL portions of olaparib prepared with EMEM medium to reach 1 μM were added to the microplate. To each well without olaparib, 10 μL of EMEM medium was added. Thereafter, the microplate was cultured at 37° C. and 5% CO2 for 6 days. After culturing, the microplate was taken out of the incubator, and left to stand at room temperature for 30 minutes. CellTiter-Glo Luminescent Cell Viability Assay (Promega Corporation) in an amount equivalent to that of the culture solution was added, and stirred using a plate mixer. The microplate was left to stand at room temperature for 10 minutes, and thereafter the amount of emission was measured by using a plate reader (PerkinElmer).
Cell survival rates in wells with derivative A, B, or […] were calculated by using the following formula.
[formula] • a: Mean value of amounts of emission from wells with derivative A, B, or C • b: Mean value of amounts of emission from wells with medium • IC50 values were calculated by using the following formula.
[formula] • a: Concentration of derivative A, B, or C, a • b: Concentration of derivative A, B, or C, b • c: Cell survival rate when derivative A, B, or C of concentration a was added • d: Cell survival rate when derivative A, B, or C of concentration b was added • a and b satisfy a>b at points sandwiching a cell survival rate of 50%.
Cell survival rates in wells with derivative A, B, or C added together with 1 μM olaparib were calculated by using the following formula.
[formula] • a: Mean value of amounts of emission from wells with derivative A, B, or C added together with 1 μM olaparib • b: Mean value of amounts of emission from wells with 1 μM olaparib • IC50 values were calculated by using the following formula.
[formula] • a: Concentration of derivative A, B, or C, a • b: Concentration of derivative A, B, or C, b • c: Cell survival rate when derivative A, B, or C of concentration a and 1 μM olaparib were added • d: Cell survival rate when derivative A, B, or C of concentration b and 1 μM olaparib were added • a and b satisfy a>b at points sandwiching a cell survival rate of 50%.

Structures are written as SMILES. Where two headings read alike, the source gives them in different places.

For the molecule `Cn1ncnc1[C@H]1c2n[nH]c(=O)c3cc(F)cc(c23)N[C@@H]1c1ccc(F)cc1` [talazoparib], in experiment [1] (talazoparib 0.8 mg/kg oral for 5 days from Day 0, Day 25, FaDu), the “tumor growth inhibition (TGI)” value is recorded as 33%.
In the case of `O=C(c1cc(Cc2n[nH]c(=O)c3ccccc23)ccc1F)N1CCN(C(=O)C2CC2)CC1` [olaparib, reference compound], the inhibition (in general, the percentage by which the read-out fell short of the control) at 1 µM in experiment [2] (1 μM olaparib alone, 6 days) is < 10%. For the same molecule, the “tumor growth inhibition (TGI)” value in experiment [1] (olaparib 50 mg/kg i.p. for 5 days from Day 0, Day 25, FaDu) came out at 7%.
Take `COc1ccc(C2=CN3C(=O)c4cc(OC)c(OCCCCCOc5cc6c(cc5OC)C(=O)N5CC7(CC7)C[C@H]5C=N6)cc4NC[C@@H]3C2)cc1` [derivative A, (11a′S)-7′-Methoxy-8′-[(5-{[(11aS)-7-methoxy-2-(4-methoxyphenyl)-5-oxo-5,10,11,11a-tetrahydro-1H-pyrrolo[2,1-c][1,4]benzodiazepin-8-yl]oxy}pentyl)oxy]-1′,11a′-dihydro-5′H-spiro[cyclopropane-1,2′-pyrrolo[2,1-c][1,4]benzodiazepine]-5′-one]: the half-inhibitory concentration (IC50) (commonly the midpoint of a concentration-inhibition curve) in experiment [2] (read-out: IC50, growth-suppressing effect, added singly, FaDu, 6 days (test 2)) worked out at 8.6 pM; in experiment [2] (read-out: IC50, growth-suppressing effect, added together with 1 μM olaparib, FaDu, 6 days), 4.4 pM.
